Patent publication US20190337971A1, “PANTETHEINE DERIVATIVES FOR THE TREATMENT OF NEUROLOGIC DISORDERS” (Retrophin, Inc., priority 2016, published 2019)
Read-outs that look alike come from different tables or passages of the source.

Columns and labels:
[1] = Stability in human whole blood; format: in vitro ADME; details: 37° C., up to 60 min
Description: The stability of selected compounds in human whole blood was evaluated according to the following protocol. Compounds and positive control samples were dissolved in 100% DMSO at 3 mM (stock solution). To investigate the stability of the test compounds in whole blood, a 200 μM working solution (WS) in water has been prepared by adding 66.66 μl of each 3 mM stock solution to 933.34 μl of water (6.66% DMSO content). After pre-incubation of the whole blood at 37° C. for 5 min in an eppendorf, 10.5 μl of each working solution were spiked into 689.5 μl of heated blood. The obtained 3 μM solution in blood (0.1% DMSO content) was quickly stirred and 100 μl for each time point were transferred to an eppendorf. Each compound was tested in duplicate at five time points (10, 20, 30, 40 and 60 min). At each time point, the reaction was stopped by quenching the spiked blood (100 μl) with 400 μl of 100% acetonitrile containing 0.1% formic acid. Then samples were centrifuged at 15600 rpm for 15 min at +4° C. and 200 μl of supernatant were transferred to a 96-deepwell plate. Samples were evaporated under N2 and reconstituted in H2O/ACN 0.1% formic Acid (98/2 v/v) containing the appropriate internal standard. Analysis was performed without a calibration curve by using an Acquity-UPLC (Waters) coupled to a triple quadrupole mass spectrometer (SciexAPI4000). Time point 0 was obtained by adding 3 μL of each 200 μM working solution to 997 μL of the supernatant obtaining after centrifugation (15600 rpm for 15 min at +4° C.) of the blank matrix quenched with acetonitrile containing 0.1% formic acid.
Stability was determined based on analysis of disappearance of the compounds as a function of incubation time. Quantification of test compounds was measured as a peak area relative to an internal standard. The elimination constant k and half-life (t1/2) were determined as described above in Example 7.

[2] = Permeability in a porcine brain endothelial cell model of the blood-brain barrier; format: in vitro ADME; details: pig, luminal (apical) to basal, PBECs/As
From the text: Compounds disclosed herein show the potential to reach mammalian brain by crossing the blood-brain barrier (BBB) from systemic circulation. […] The porcine brain endothelial cell permeability assay is an in vitro BBB model to be used for the prediction of central nervous system (CNS) drug permeability in vivo and for ranking or prioritization of compounds according to their permeability. This system can also be used for mechanistic studies and drug delivery strategies via receptor-mediated transport (transcytosis). The system is a two-dimensional co-culture, non-contact model of two types of primary cells: primary brain endothelial cells obtained from fresh porcine brains, and primary rat astrocytes, obtained from neonatal rats (PBECs/As). This ensures barrier formation and functional expression of key transporters.
The endothelial cells were cultured on rat-tail collagen type I and human fibronectin coated Transwell polycarbonate inserts (surface area 0.7 cm^2; pore size 0.4 μm) and the inserts were placed in 24-well plates containing confluent rat astrocytes. This system allows for the formation of a differentiated BBB model suitable for compound permeability in 10 days.
On the day of the experiment, culture medium was removed and cells were pre-incubated for 30 min with HBSS containing 20 mM Hepes pH 7.4 and 0.1% BSA. Donor volume (apical) was 400 μl and receiver volume (basal) 900 μl. Compounds were diluted in assay medium (at the desired concentration) and added to the luminal side (to mimic blood to brain passage). Transport was measured usually after 60 min by detecting the amount of compound from the basal (brain side). The integrity of the cell layers was assessed by measuring the transendothelial electrical resistance (TEER) and by monitoring FITC-dextran (40 KDa) permeation. Inserts with TEER values>500 Ω/cm^2 were selected for permeability studies. […] Fluorescence was measured using a fluorimetric detector. Radioactivity was measured by scintillation counting. […] After reconstitution, samples were analyzed by LC-MS/MS. Mass balance was determined considering the amount of compound recovered in the donor and receiver chamber at the end of the assay relative to the amount added to the donor chamber at time 0.
Permeability was defined as the apparent permeability coefficient (Papp), which is a measure of the appearance rate of the compound in the receiver chamber, expressed in cm/s. Papp is calculated according the following equation: […]
To correct for the contribution of filter and substrate, Papp was also determined for the cell-free system. Permeability of the endothelial cell layer was determined using the following equation: […]

[3] = Diastereoisomer A (upfield shift in 31P NMR), read-out: t1/2 (h) Human Whole Blood Diastereoisomer A (converted)
[4] = Diastereoisomer B, read-out: t1/2 (h) Human Whole Blood Diastereoisomer B (converted)
[5] = pH 7.4, Diastereoisomer A (upfield shift in 31P NMR), read-out: Papp Diastereoisomer A
[6] = pH 7.4, Diastereoisomer B, read-out: Papp Diastereoisomer B

| Compound | half-life at 3 μM [1, 3] [h] | half-life at 3 μM [1, 4] [h] | Papp A→B at 60 min [2, 5] [×10⁻⁶ cm/s] | Papp A→B at 60 min [2, 6] [×10⁻⁶ cm/s] |
| --- | --- | --- | --- | --- |
| CC(=O)SCCNC(=O)CCNC(=O)[C@@H]1OP(=O)(OCOC(=O)c2cc(C)nn2C)OCC1(C)C (stereo partly drawn) [R1007, (((4R)-4-((3-((2-(acetylthio)ethyl)amino)-3-oxopropyl)carbamoyl)-5,5-dimethyl-2-oxido-1,3,2-dioxaphosphinan-2-yl)oxy)methyl 1,3-dimethyl-1H-pyrazole-5-carboxylate] | 0.34 | < 0.16 | 3.1 | 3.6 |
| CC(=O)SCCNC(=O)CCNC(=O)[C@@H]1OP(=O)(OCOC(=O)c2scnc2C)OCC1(C)C (stereo partly drawn) [R1006, (((4R)-4-((3-((2-(acetylthio)ethyl)amino)-3-oxopropyl)carbamoyl)-5,5-dimethyl-2-oxido-1,3,2-dioxaphosphinan-2-yl)oxy)methyl 4-methylthiazole-5-carboxylate] | 0.37 | < 0.16 | 3.17 | 3.18 |
